We go through ten compounds from patent publication US11427548B2 (Arvinas Operations, Inc., priority 2015, dated 2022).

This assay addresses T1, Androgen Receptor (Homo sapiens, UniProt P10275).
T1 construct: endogenous in cells; host or cells: VCaP cells
T1 sequence (P10275 1-920): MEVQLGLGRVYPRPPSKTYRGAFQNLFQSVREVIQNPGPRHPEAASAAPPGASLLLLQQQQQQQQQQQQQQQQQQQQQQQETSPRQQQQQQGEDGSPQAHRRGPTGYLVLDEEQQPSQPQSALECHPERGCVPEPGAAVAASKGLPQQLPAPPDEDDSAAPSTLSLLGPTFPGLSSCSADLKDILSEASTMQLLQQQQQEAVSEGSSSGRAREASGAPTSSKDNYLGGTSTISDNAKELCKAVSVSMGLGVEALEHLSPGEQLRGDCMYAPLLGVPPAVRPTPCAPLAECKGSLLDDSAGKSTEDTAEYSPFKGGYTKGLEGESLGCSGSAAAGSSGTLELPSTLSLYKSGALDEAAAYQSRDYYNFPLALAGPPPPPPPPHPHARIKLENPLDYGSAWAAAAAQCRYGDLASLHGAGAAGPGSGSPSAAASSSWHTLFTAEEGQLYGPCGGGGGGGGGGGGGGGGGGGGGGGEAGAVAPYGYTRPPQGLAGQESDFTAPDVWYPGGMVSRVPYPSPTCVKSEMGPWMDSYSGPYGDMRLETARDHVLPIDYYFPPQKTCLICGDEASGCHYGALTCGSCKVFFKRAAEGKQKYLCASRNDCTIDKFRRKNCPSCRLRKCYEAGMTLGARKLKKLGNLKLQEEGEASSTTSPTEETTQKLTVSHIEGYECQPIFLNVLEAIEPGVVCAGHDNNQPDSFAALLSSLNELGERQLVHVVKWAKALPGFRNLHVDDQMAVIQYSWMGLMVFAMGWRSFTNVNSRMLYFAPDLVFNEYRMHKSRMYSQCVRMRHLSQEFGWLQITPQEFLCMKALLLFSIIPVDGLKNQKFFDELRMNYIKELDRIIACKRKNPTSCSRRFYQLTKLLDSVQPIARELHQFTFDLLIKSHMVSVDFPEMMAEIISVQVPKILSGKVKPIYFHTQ
The assay can be described thus: Androgen Receptor ELISA assay (PathScan AR ELISA) in VCaP cells: AR degradation, Dmax and DC50. The class given is cell-based. Here is the method: 1. Androgen Receptor ELISA Assay.
The protocols used with VCaP cells are described below. The androgen receptor ELISA assay was performed using PathScan AR ELISA (Cell Signaling Catalog #12850) according to the following assay steps:
VCaP cells are seeded at 30,000 cells/well at a volume of 200 μL/well in VCaP assay medium [Phenol red free RPMI (Gibco Cat #11835-030); 5% Charcoal Stripped (Dextran treated) FBS (Omega Scientific, Cat #FB-04); Pen/Strep Life Technologies (Gibco Cat #: 10378-016); 0.1 nM R1881 (Sigma, Cat #R0908) is added upon the start of the assay, not during initial plating of the cells) in Corning 3904 plates. The cells are grown for a minimum of 3 days.
First, cells are dosed with compounds diluted in 0.1% DMSO—use a polypropylene plate according to the following protocol: (1)(i) make 1000× stock plate in DMSO; (ii) 20 mM stock diluted 1/6.7 with DMSO (5 μL+28.3 μL DMSO)=3 mM into row H; (iii) perform serial dilutions in ½ log doses (10 μL of PROTAC+20 μL DMSO) from row H towards row B. Reserve row A for DMSO; (iv) 7 doses total (final concentration in this 1000× plate will be 3 mM, 1 mM, 333 μM, 111 μM, etc). (2)(i) Make 10× stock plate in media; (ii) transfer 2.5 μL of the 1000× stock to a new 10× stock plate (use 12 channel pipet, start at A (DMSO control) work thru H. When 247.5 μL of media is added to this plate, it will serve as a 10× stock; (iii) make media+1 nM R1881 for making 10× stock plate; (iv) add 247.5 μL of media with 1 nM R1881 to each well of the 10× stock plate, mix.
Then 22 μL of 10× stock is added to cells and incubated for 24 h. 1× Cell Signaling Cell lysis buffer is made (Catalogue #9803; comes with the kit)—prepare for 50 μL/well. Keep on ice. Media is aspirated, and 50 μL 1× cell lysis buffer/well is added. The cells are placed on ice for 10 minutes. The solution is mixed and transferred to PCR plate, and centrifuged at 4C for 10 minutes at 4000 rpm.
5 μL is transferred to fresh plate (use immediately or freeze −80 C); 115 μL ELISA Dilutant is added (0.15 ug/ml-0.075 ug/ml; comes with the PathScan ELISA).
Add 100 μL/well AR Elisa; cover and shake, 37 C for 2 hrs; dump, tap, wash 4×200 μL ELISA wash buffer; add 100 μL/well mouse AR detection Ab; cover and shake, 37 C for 1 hr; dump, tap, wash 4×200 μL ELISA wash buffer; add 100 μL/well anti-mouse—HRP conjugated Ab (comes with the kit); cover and shake, 37 C for 30 min; allow TMB reagent to come to room temperature; dump, tap, wash 4×200 μL Elisa wash buffer; tap; add 100 μL TMB, shake 5 min—while watching color. Add the stop reagent when light blue color develops. Add 100 μL Stop solution; shake and read at 450 nm.
(ELISA stands for enzyme-linked immunosorbent assay.)

[1] abbreviates: read-out: VCaP DC50; concentration that caused 50% Androgen Receptor degradation, VCaP cells.
Setting [2] is: VCaP, highest percentage of Androgen Receptor degradation observed, VCaP cells; read-out: VCaP Dmax (%).
[3] abbreviates: concentration that caused 50% Androgen Receptor degradation, VCaP cells; read-out: VCaP DC50.

What is called Dmax is the greatest extent of degradation seen. Usually DC50 stands for the midpoint of the concentration-degradation curve.

Structures are written as SMILES. Where two headings read alike, the source gives them in different places. Some results are limits rather than exact numbers.

Regarding `Cc1ncoc1-c1ccc(CNC(=O)[C@@H]2C[C@@H](O)CN2C(=O)[C@@H](NC(=O)COCCCOCCCCOc2ccc(N3C(=S)N(c4ccc(C#N)c(Cl)c4)C(=O)C3(C)C)cc2)C(C)C)cc1` [Example 39], the greatest degradation seen (Dmax) (VCaP, read-out: VCaP Dmax (%)) was 26 to 50%. For the same compound, the DC50 under setting [1] was under 0.05 µM.

As to `Cc1ncsc1-c1ccc(CNC(=O)[C@@H]2C[C@@H](O)CN2C(=O)[C@@H](NC(=O)COCCCOCCCCOc2ccc(N3C(=S)N(c4ccc(C#N)c(C(F)(F)F)c4)C(=O)C3(C)C)cn2)C(C)(C)C)cc1` [Example 40, (2S,4R)-1-[(2S)-2-[2-(3-{4-[(5-{3-[4-cyano-3-(trifluoromethyl)phenyl]-5,5-dimethyl-4-oxo-2-sulfanylideneimidazolidin-1-yl}pyridin-2-yl)oxy]butoxy}propoxy)acetamido]-3,3-dimethylbutanoyl]-4-hydroxy-N-{[4-(4-methyl-1,3-thiazol-5-yl)phenyl]methyl}pyrrolidine-2-carboxamide], under “VCaP, read-out: VCaP Dmax (%)”, the Dmax fell in the range of 51 to 70%. Also, the 50% degradation concentration (DC50) under setting [1] was under 0.05 µM.

Consider `Cc1ncsc1-c1ccc(CNC(=O)[C@@H]2C[C@@H](O)CN2C(=O)[C@@H](NC(=O)COCCCOCCCCOc2ccc(N3C(=S)N(c4ccc(C#N)c(Cl)c4)C(=O)C3(C)C)cc2F)C(C)(C)C)cc1` [Example 41, (2S,4R)-1-[(2S)-2-{2-[3-(4-{4-[3-(3-chloro-4-cyanophenyl)-5,5-dimethyl-4-oxo-2-sulfanylideneimidazolidin-1-yl]-2-fluorophenoxy}butoxy)propoxy]acetamido}-3,3-dimethylbutanoyl]-4-hydroxy-N-{[4-(4-methyl-1,3-thiazol-5-yl)phenyl]methyl}pyrrolidine-2-carboxamide], for which the greatest degradation seen (Dmax) (VCaP, read-out: VCaP Dmax (%)) was over 71%. The DC50 under setting [1] is under 0.05 µM.

As to `COc1cc(N2C(=O)C(C)(C)N(c3ccc(OCCCCOCCCOCC(=O)N[C@H](C(=O)N4C[C@H](O)C[C@H]4C(=O)NCc4ccc(-c5scnc5C)cc4)C(C)(C)C)c(F)c3)C2=S)ccc1C#N` [Example 42, (2S,4R)-1-[(2S)-2-{2-[3-(4-{4-[3-(4-cyano-3-methoxyphenyl)-5,5-dimethyl-4-oxo-2-sulfanylideneimidazolidin-1-yl]-2-fluorophenoxy}butoxy)propoxy]acetamido}-3,3-dimethylbutanoyl]-4-hydroxy-N-{[4-(4-methyl-1,3-thiazol-5-yl)phenyl]methyl}pyrrolidine-2-carboxamide], under setting [2], the Dmax was in the range of 51 to 70%. Further, the DC50 under setting [3] is under 0.05 µM.

Consider `Cc1ncsc1-c1ccc(CNC(=O)[C@@H]2C[C@@H](O)CN2C(=O)[C@@H](NC(=O)COCCCOCCCCOc2ccc(N3C(=S)N(c4ccc(C#N)c(C(F)(F)F)c4)C(=O)C34CCOCC4)cc2)C(C)(C)C)cc1` [Example 43, (2S,4R)-1-[(2S)-2-(2-{3-[4-(4-{3-[4-cyano-3-(trifluoromethyl)phenyl]-4-oxo-2-sulfanylidene-8-oxa-1,3-diazaspiro[4.5]decan-1-yl}phenoxy)butoxy]propoxy}acetamido)-3,3-dimethylbutanoyl]-4-hydroxy-N-{[4-(4-methyl-1,3-thiazol-5-yl)phenyl]methyl}pyrrolidine-2-carboxamide], for which the greatest degradation seen (Dmax) (VCaP, read-out: VCaP Dmax (%)) lay in the range of 51 to 70%. Besides, under setting [1], the 50% degradation concentration (DC50) is under 0.05 µM.

Turning to `Cc1ncoc1-c1ccc(CNC(=O)[C@@H]2C[C@@H](O)CN2C(=O)[C@@H](NC(=O)COCCCOCCCCOc2ccc(N3C(=S)N(c4ccc(C#N)c(Cl)c4)C(=O)C3(C)C)cc2F)C(C)(C)C)cc1` [Example 44, (2S,4R)-1-[(2S)-2-{2-[3-(4-{4-[3-(3-chloro-4-cyanophenyl)-5,5-dimethyl-4-oxo-2-sulfanylideneimidazolidin-1-yl]-2-fluorophenoxy}butoxy)propoxy]acetamido}-3,3-dimethylbutanoyl]-4-hydroxy-N-{[4-(4-methyl-1,3-oxazol-5-yl)phenyl]methyl}pyrrolidine-2-carboxamide], under “VCaP, read-out: VCaP Dmax (%)”, the maximal degradation (Dmax) is over 71%. Besides, the DC50 under setting [1] was under 0.05 µM.

For `CC(C)(C)[C@H](NC(=O)COCCCOCCCCOc1ccc(N2C(=S)N(c3ccc(C#N)c(Cl)c3)C(=O)C2(C)C)cc1F)C(=O)N1C[C@H](O)C[C@H]1C(=O)NCc1ccc(-c2cnco2)cc1` [Example 45, (2S,4R)-1-[(2S)-2-{2-[3-(4-{4-[3-(3-chloro-4-cyanophenyl)-5,5-dimethyl-4-oxo-2-sulfanylideneimidazolidin-1-yl]-2-fluorophenoxy}butoxy)propoxy]acetamido}-3,3-dimethylbutanoyl]-4-hydroxy-N-{[4-(1,3-oxazol-5-yl)phenyl]methyl}pyrrolidine-2-carboxamide], the maximal degradation (Dmax) (VCaP, read-out: VCaP Dmax (%)) was over 71%. Under setting [1], the DC50 was under 0.05 µM.

As to `CC(C)(C)[C@H](NC(=O)COCCCOCCCCOc1ccc(N2C(=S)N(c3ccc(C#N)c(Cl)c3)C(=O)C2(C)C)cc1F)C(=O)N1C[C@H](O)C[C@H]1C(=O)NCc1ccc(-c2cncs2)cc1` [Example 46, (2S,4R)-1-[(2S)-2-{2-[3-(4-{4-[3-(3-chloro-4-cyanophenyl)-5,5-dimethyl-4-oxo-2-sulfanylideneimidazolidin-1-yl]-2-fluorophenoxy}butoxy)propoxy]acetamido}-3,3-dimethylbutanoyl]-4-hydroxy-N-{[4-(1,3-thiazol-5-yl)phenyl]methyl}pyrrolidine-2-carboxamide], where the note is “VCaP, read-out: VCaP Dmax (%)”, the Dmax is over 71%. Also, the DC50 under setting [1] is under 0.05 µM.

Regarding `CC(C)(C)[C@H](NC(=O)COCCCOCCCCOc1ccc(N2C(=S)N(c3cnc(C#N)c(C(F)(F)F)c3)C(=O)C2(C)C)cc1F)C(=O)N1C[C@H](O)C[C@H]1C(=O)NCc1ccc(-c2cnco2)cc1` [Example 47, (2S,4R)-1-[(2S)-2-(2-{3-[4-(4-{3-[6-cyano-5-(trifluoromethyl)pyridin-3-yl]-5,5-dimethyl-4-oxo-2-sulfanylideneimidazolidin-1-yl}-2-fluorophenoxy)butoxy]propoxy}acetamido)-3,3-dimethylbutanoyl]-4-hydroxy-N-{[4-(1,3-oxazol-5-yl)phenyl]methyl}pyrrolidine-2-carboxamide], the Dmax under setting [2] is 51 to 70%. For the same compound, under setting [3], the DC50 is under 0.05 µM.

In the case of `Cc1ncsc1-c1ccc(CNC(=O)[C@@H]2C[C@@H](O)CN2C(=O)[C@@H](NC(=O)COCCCOCCCCOc2ccc(N3C(=S)N(c4cnc(C#N)c(C(F)(F)F)c4)C(=O)C3(C)C)cc2F)C(C)(C)C)cc1` [Example 48, (2S,4R)-1-[(2S)-2-(2-{3-[4-(4-{3-[6-cyano-5-(ttifluoromethyl)pyridin-3-yl]-5,5-dimethyl-4-oxo-2-sulfanylideneimidazolidin-1-yl}-2-fluorophenoxy)butoxy]propoxy}acetamido)-3,3-dimethylbutanoyl]-4-hydroxy-N-{[4-(4-methyl-1,3-thiazol-5-yl)phenyl]methyl}pyrrolidine-2-carboxamide], the Dmax under setting [2] lay within 51 to 70%. In addition, under setting [3], the DC50 was under 0.05 µM.
